Laboratory results: ChEMBL document CHEMBL1201862, “PubChem BioAssay data set” (2004)
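Five compound concentrations were applied to cells in 96-well plates for 48 hours; endpoints were derived by simple linear interpolation of the resulting dose-response curve. At the GI50, growth is halved.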 Activity calls are given as the source filed them. Rule as the data show it: active = GI50 up to about 1.1 µM and inactive = higher.

Key:
Assay in all cases: NCI-60 cell line screen, 48 h
EKVX = test system: EKVX
TK-10 = test system: TK-10
NCI-H226 = test system: NCI-H226
HT-29 = test system: HT-29
LOX IMVI = test system: LOX IMVI
UACC-62 = test system: UACC-62
SF-268 = test system: SF-268
MDA-MB-435 = test system: MDA-MB-435
HL-60 = test system: HL-60
BT-549 = test system: BT-549
OVCAR-3 = test system: OVCAR-3
NCI-H522 = test system: NCI-H522
IGROV-1 = test system: IGROV-1
DU-145 = test system: DU-145
OVCAR-8 = test system: OVCAR-8
HCC 2998 = test system: HCC 2998
MDA-N = test system: MDA-N
SK-MEL-2 = test system: SK-MEL-2
CAKI-1 = test system: CAKI-1
COLO 205 = test system: COLO 205

Measured: GI50

COc1cc(C2C(Cl)C(=O)N2NC(=O)c2ccccc2O)cc(OC)c1OC (configuration not stated)
inactive: EKVX 5.27 µM | TK-10 8.51 µM | NCI-H226 4.49 µM | HT-29 2.75 µM | LOX IMVI 3.7 µM | UACC-62 2.89 µM | SF-268 5.73 µM | MDA-MB-435 6.03 µM | BT-549 > 10 µM | OVCAR-3 4.72 µM | NCI-H522 2.87 µM | OVCAR-8 2.47 µM
active: HL-60 0.733 µM | IGROV-1 0.188 µM | DU-145 0.284 µM

Cc1cc(S(=O)(=O)[N-]/C(=N/S(=O)(=O)c2cc(Cl)sc2Cl)[n+]2ccc(N(C)C)cc2)c(S)cc1Cl
inactive: HCC 2998 60.7 µM | EKVX > 100 µM | MDA-N 34 µM | TK-10 49.7 µM | NCI-H226 39.3 µM | HT-29 30.6 µM | LOX IMVI > 100 µM | SF-268 40.1 µM | SK-MEL-2 50.4 µM | MDA-MB-435 62.1 µM | HL-60 > 100 µM | CAKI-1 60.3 µM | OVCAR-3 96.6 µM | NCI-H522 25.4 µM | IGROV-1 > 100 µM | DU-145 39.4 µM | OVCAR-8 40.8 µM

c1csc(-c2ccc(-c3ccc(-c4ccc(-c5cccs5)s4)s3)s2)c1
inactive: HCC 2998 > 100 µM | EKVX > 100 µM | TK-10 > 100 µM | NCI-H226 > 100 µM | HT-29 > 100 µM | COLO 205 > 100 µM | UACC-62 > 100 µM | SF-268 > 100 µM | MDA-MB-435 > 100 µM | HL-60 14.8 µM | CAKI-1 > 100 µM | OVCAR-3 > 100 µM | IGROV-1 > 100 µM | DU-145 > 100 µM | OVCAR-8 > 100 µM

COC(=O)C12OCC34C(CC5C(C)C6=CC(=O)OC6=CC5(C)C3C(O)C1O)OC(=O)C(O)C24 (configuration not stated)
inactive: TK-10 1.42 µM | COLO 205 6.43 µM | CAKI-1 4.08 µM
active: HCC 2998 0.156 µM | EKVX 0.716 µM | NCI-H226 0.293 µM | HT-29 0.217 µM | LOX IMVI 0.157 µM | UACC-62 0.319 µM | SF-268 0.504 µM | SK-MEL-2 0.446 µM | HL-60 0.314 µM | OVCAR-3 0.655 µM | NCI-H522 0.533 µM | IGROV-1 0.23 µM | OVCAR-8 0.935 µM

CN(C)C(=O)C(F)(F)C(c1ccccc1Br)C1C(=O)N(C)C(=O)N(C)C1=O (configuration not stated)
inactive: HCC 2998 > 100 µM | EKVX > 100 µM | TK-10 > 100 µM | NCI-H226 > 100 µM | COLO 205 > 100 µM | LOX IMVI > 100 µM | UACC-62 > 100 µM | SF-268 > 100 µM | SK-MEL-2 > 100 µM | MDA-MB-435 > 100 µM | CAKI-1 > 100 µM | BT-549 > 100 µM | OVCAR-3 > 100 µM | DU-145 > 100 µM | OVCAR-8 > 100 µM

CCCCCCCCCCCCCCCCOP(=O)(O)OCC(N)C(=O)O (configuration not stated)
inactive: HCC 2998 15.1 µM | EKVX 54.1 µM | MDA-N 23.5 µM | TK-10 5.02 µM | NCI-H226 21 µM | HT-29 33 µM | COLO 205 20.7 µM | LOX IMVI 13.5 µM | UACC-62 18 µM | SF-268 18.5 µM | SK-MEL-2 19.3 µM | MDA-MB-435 22.5 µM | CAKI-1 13 µM | OVCAR-3 17.4 µM | NCI-H522 20.3 µM | IGROV-1 18.4 µM | DU-145 87.3 µM | OVCAR-8 25.4 µM

O=C(Nc1ccc(N=C=S)cc1Cl)c1cc(Br)cc(Br)c1O
inactive: TK-10 27.9 µM | NCI-H226 18.5 µM | HT-29 19.8 µM | COLO 205 27.2 µM | UACC-62 18.9 µM | SF-268 36.9 µM | SK-MEL-2 31.6 µM | MDA-MB-435 28.1 µM | HL-60 34.5 µM | CAKI-1 43.1 µM | OVCAR-3 36.7 µM | NCI-H522 31.3 µM | IGROV-1 19.4 µM | DU-145 15.9 µM | OVCAR-8 18.2 µM

Cc1ccc(N/N=C/C2=CC(C)(C)C(C#N)(C#N)C(O)=C2C#N)cc1
inactive: HCC 2998 37.8 µM | EKVX 61.1 µM | MDA-N 54.8 µM | TK-10 99.5 µM | NCI-H226 > 100 µM | HT-29 37.8 µM | COLO 205 26.9 µM | LOX IMVI 65.8 µM | UACC-62 30.4 µM | SF-268 49 µM | MDA-MB-435 62.5 µM | HL-60 17.3 µM | CAKI-1 31.6 µM | OVCAR-3 36.6 µM | NCI-H522 > 100 µM | IGROV-1 21 µM | DU-145 66.7 µM | OVCAR-8 38.4 µM

O=[N+]([O-])/C(C(Cl)=C(Cl)Cl)=C(/Nc1ccccc1)SCc1ccccc1
inactive: HCC 2998 24.3 µM | EKVX 21 µM | MDA-N 16.7 µM | TK-10 29.8 µM | NCI-H226 21.2 µM | HT-29 29.6 µM | COLO 205 21.9 µM | LOX IMVI 20.5 µM | UACC-62 20 µM | SF-268 20.5 µM | SK-MEL-2 19.4 µM | MDA-MB-435 17.8 µM | HL-60 19.1 µM | CAKI-1 31.9 µM | OVCAR-3 15 µM | NCI-H522 23.3 µM | IGROV-1 22.3 µM | DU-145 23.6 µM | OVCAR-8 17.7 µM

CC(C)(C)[Si](C)(C)OCC1OC(n2cnc3c(=O)[nH]c(N)nc32)C(O[Si](C)(C)C(C)(C)C)C1O[Si](C)(C)C(C)(C)C (configuration not stated)
active: SK-MEL-2 0.176 µM | HL-60 0.849 µM
inactive: HCC 2998 1.98 µM | EKVX 19.5 µM | MDA-N 1.57 µM | TK-10 2.34 µM | NCI-H226 2.84 µM | HT-29 1.8 µM | COLO 205 1.72 µM | LOX IMVI 2.09 µM | UACC-62 1.22 µM | SF-268 2.58 µM | MDA-MB-435 1.47 µM | CAKI-1 10.9 µM | OVCAR-3 1.47 µM | NCI-H522 1.68 µM | IGROV-1 1.92 µM | DU-145 2.33 µM | OVCAR-8 3.2 µM

CN(CCc1ccccn1)c1ccc2c(c1)Cc1ccccc1-2
inactive: HCC 2998 29.5 µM | EKVX 16.6 µM | TK-10 31.5 µM | NCI-H226 14.9 µM | HT-29 23.1 µM | COLO 205 15.7 µM | LOX IMVI 16.3 µM | UACC-62 10.6 µM | SF-268 6.5 µM | MDA-MB-435 31 µM | HL-60 20.4 µM | CAKI-1 61.4 µM | BT-549 14.7 µM | OVCAR-3 26.1 µM | NCI-H522 8.69 µM | IGROV-1 16.1 µM | DU-145 43.7 µM | OVCAR-8 18.4 µM

COc1ccc(N2C(=O)C(=O)N(c3ccccc3[N+](=O)[O-])C2=S)cc1
inactive: HCC 2998 36.1 µM | EKVX 30.5 µM | MDA-N 27 µM | TK-10 21.7 µM | NCI-H226 28.2 µM | HT-29 33.8 µM | COLO 205 19.4 µM | LOX IMVI 16.6 µM | UACC-62 17.5 µM | SF-268 33.7 µM | SK-MEL-2 14.6 µM | MDA-MB-435 27.4 µM | HL-60 46 µM | CAKI-1 40 µM | NCI-H522 10.7 µM | IGROV-1 34.8 µM | DU-145 38.4 µM | OVCAR-8 21.1 µM

CCOC(=O)C1(C(=O)OCC)C[C@@H](C)[C@@H](O)C1
inactive: EKVX > 100 µM | MDA-N > 100 µM | TK-10 > 100 µM | NCI-H226 > 100 µM | HT-29 > 100 µM | COLO 205 > 100 µM | LOX IMVI > 100 µM | UACC-62 > 100 µM | SF-268 > 100 µM | SK-MEL-2 > 100 µM | MDA-MB-435 > 100 µM | HL-60 89.9 µM | CAKI-1 > 100 µM | OVCAR-3 > 100 µM | NCI-H522 > 100 µM | IGROV-1 > 100 µM | DU-145 > 100 µM | OVCAR-8 > 100 µM

N#CC(C#N)C1CN2CCC1CC2 (configuration not stated)
inactive: HCC 2998 > 100 µM | EKVX > 100 µM | MDA-N > 100 µM | TK-10 > 100 µM | NCI-H226 > 100 µM | HT-29 > 100 µM | COLO 205 > 100 µM | LOX IMVI > 100 µM | UACC-62 > 100 µM | SF-268 > 100 µM | SK-MEL-2 > 100 µM | MDA-MB-435 > 100 µM | HL-60 > 100 µM | CAKI-1 > 100 µM | OVCAR-3 > 100 µM | NCI-H522 > 100 µM | IGROV-1 > 100 µM | DU-145 > 100 µM | OVCAR-8 79.6 µM

CC(C)C(=O)/C=C/S/C=C/C(=O)C(C)C
inactive: EKVX 5 µM | TK-10 > 100 µM | NCI-H226 7 µM | HT-29 4.09 µM | COLO 205 2.94 µM | LOX IMVI 3.31 µM | UACC-62 9.46 µM | SF-268 26.2 µM | SK-MEL-2 23.4 µM | MDA-MB-435 10.4 µM | CAKI-1 3.56 µM | OVCAR-3 3.62 µM | NCI-H522 1.19 µM | IGROV-1 19.5 µM | DU-145 13.4 µM | OVCAR-8 2.7 µM

CC#CC(=O)Nc1ccccc1CC(c1c[nH]c2ccccc12)c1c[nH]c2ccccc12
inactive: HCC 2998 18.3 µM | EKVX 14.6 µM | TK-10 29.9 µM | NCI-H226 15.5 µM | HT-29 16.2 µM | COLO 205 15.5 µM | LOX IMVI 15.2 µM | UACC-62 13.3 µM | SF-268 22.7 µM | SK-MEL-2 18.2 µM | HL-60 10.8 µM | CAKI-1 20.6 µM | OVCAR-3 18.9 µM | NCI-H522 > 10 µM | IGROV-1 16.4 µM | OVCAR-8 19.1 µM
